Earlier results on two compounds are cited in patent US20050031668A1, “Implantable polymeric device for sustained release of nalmefene” (priority 2003, published 2005).

The conditions of series [1]: in vivo.
Series [2] relates to μ, δ, and κ receptors.
The conditions of series [3]: in vivo. The source holds these as a separate data set.
Experiment in series [4]: not given
This is another data set of the same source.

Experiment in series [5]: not given
This is another data set of the same source.

With `O=C1CC[C@@]2(O)[C@H]3Cc4ccc(O)c5c4[C@@]2(CCN3CC2CC2)[C@H]1O5` [naltrexone], in series [1], the “limitations of use: hepatotoxicity” value is “dose-dependent hepatotoxic side effects” and the “limitations of use: nausea” value is recorded as “intolerable nausea”. In addition, the “opioid receptors acted on” value in series [2] is on record as “primarily blocks μ receptors”.
Turning to `C=C1CC[C@@]2(O)[C@H]3Cc4ccc(O)c5c4[C@@]2(CCN3CC2CC2)[C@H]1O5` [nalmefene], for the setting “40 mg oral, 21 alcohol-dependent patients”, the “rate of relapse compared with placebo or 10 mg nalmefene” value is on record as “significantly lower rate of relapse”. For the same compound, the “number of drinks per drinking day” value (40 and 10 mg doses) is recorded as “significantly decreased”. Moreover, in series [2], the agonist activity entry was “no agonist activity”; the “opioid receptors acted on” value is “acts on μ, δ, and κ receptors”. Also, in series [3], the “efficacy in animal models of alcoholism” value is “effective”. In series [4] (compared with naltrexone), the half-life result is “longer half-life”. The serious adverse effects result in series [4] (in vivo) is given as “no serious adverse effects”. In addition, in series [5] (20 or 80 mg/day orally), the nausea entry is recorded as “Transient nausea” and the serious adverse events entry is on record as “no serious adverse events occurred”. Besides, the “proportion of nalmefene patients who relapsed” value in series [5] (20 or 80 mg/day orally, twelve weeks) is recorded as “One-third”. For the same compound, the “relapse to heavy drinking versus placebo” value in series [5] (20 or 80 mg/day orally, twelve-week study, 105 alcoholic patients) is “Fewer patients receiving nalmefene relapsed to heavy drinking”. Besides, in series [5] (treated versus control groups), the “number of abstinent days and self-reported craving” value is “the same in treated and control groups”.
